Assay results as given in publication PMC8728736, “A Reactivity-Based ^18F-Labeled Probe for PET Imaging of Oxidative Stress in Chemotherapy-Induced Cardiotoxicity” (Molecular Pharmaceutics, 2021).

Key:
[1] = Reactivity of 18F-FPBT to reactive oxygen species: hydroxyl radical; conditions: Fenton-reaction-generated hydroxyl radicals 100 μM, 5 min
Description: (§1) ^18F-FPBT (0.5–2.0 MBq) was reacted with potassium superoxide (source of superoxide, 1 mg), hydrogen peroxide (100 μM), Fenton-reaction-generated hydroxyl radicals (100 μM), iron(II) sulfate heptahydrate (100 μM), tert-butyl hydroperoxide (100 μM), tert-butoxy radical (100 μM), and 3-morpholinosydnomine (source of peroxynitrite (100 μM)) for 5 min or diethylamine NONOate (source of nitric oxide, 100 μM) for 30 min at room temperature, after which it was subjected to radio-HPLC analysis and % oxidation was calculated.

[2] = Reactivity of 18F-FPBT to reactive oxygen species: hydrogen peroxide; conditions: 100 μM, 5 min
Description: as §1

[3] = Reactivity of 18F-FPBT to reactive oxygen species: peroxynitrite; conditions: 3-morpholinosydnomine 100 μM, 5 min
Description: as §1

[4] = Reactivity of 18F-FPBT to reactive oxygen species: nitric oxide; conditions: diethylamine NONOate 100 μM, 30 min
Description: as §1

[5] = Reactivity of 18F-FPBT to other biologically relevant ROS; conditions: ROS other than superoxide
Description: as §1

[6] = PET/CT imaging of healthy mice; assay type: in vivo, C57BL/6 mice; conditions: iv
Description: C57BL/6 mice (male, 25 ± 2 g, n = 3) were placed on the PET scanner bed and injected with ^18F-FPBT (1.7 ± 0.4 MBq) through the tail vein at the start time of PET acquisition. A dynamic PET scan was performed for 60 min, followed by a CT scan and ex vivo biodistribution. The PET data was reconstructed into 5 frames of 60 s, 3 frames of 300 s, and 4 frames of 600 s. Regions of interest (ROIs) were drawn and quantified using VivoQuant software (v3.0, inviCRO, LLC, Boston, USA). Organ uptake was calculated as standard uptake values (SUV), and data are reported as mean ± SD.

[7] = Post-mortem biodistribution in healthy rats; assay type: in vivo, Wistar rats; conditions: for Ex vivo biodistribution, Blood / Ex vivo biodistribution, Bone / Ex vivo biodistribution, Brain / Ex vivo biodistribution, Heart / Ex vivo biodistribution, Kidney / Ex vivo biodistribution, Large Intestine / Ex vivo biodistribution, Liver / Ex vivo biodistribution, Lung / Ex vivo biodistribution, Muscle / Ex vivo biodistribution, Spleen / Ex vivo biodistribution, Urine / Ex vivo biodistribution, Small Intestine: healthy rats, mean ± SD, n = 3
Description: Wistar rats (male, 319 ± 20 g) were injected intravenously via the tail vein with either ^18F-FPBT (1.0 ± 0.4 MBq) or ^18F-FPBT-Ox (1.1 ± 0.5 MBq). The animals were sacrificed by cervical dislocation at 1, 5, or 30 min postinjection (n = 3/group). Organs and tissues of interest were harvested and weighed, and the radioactivity was measured in a gamma counter. Organ uptake was calculated as the percentage injected dose per gram of tissue mass (% ID/g). Data are reported as mean ± SD.

[8] = PET/CT imaging in rat model of doxorubicin-induced cardiotoxicity; assay type: in vivo, Wistar rats; conditions: PET, 30 min scan, doxorubicin n = 6, saline n = 4
Description: (§2) Male Wistar rats (280–300 g) were used in all experiments. Subcutaneous 7 day osmotic pumps (Alzet), containing either doxorubicin (Cambridge Bioscience, 30 mg/kg cumulative dose) or vehicle (sterile 0.9% NaCl), were inserted into rats under 2% isoflurane in 100% oxygen.
Wistar rats that had received either doxorubicin treatment (male, 267 ± 19 g, n = 6) or saline (male, 303 ± 9 g, n = 4) via osmotic pumps for 7 days were injected with ^18F-FPBT (2.6 ± 1.5 MBq) via the tail vein on the PET/CT scanner bed. The time of injection coincided with the beginning of PET acquisition in order to obtain dynamic tracer uptake information. PET scans with the chest area in the field of vision were acquired for 30 min, followed by a CT scan, after which the animals were sacrificed and organs harvested, weighed, and gamma-counted as for the biodistribution protocol. The hearts were frozen in liquid nitrogen for gamma counting and oxidative stress biomarker assays. The PET data was reconstructed into three frames: 0–3 min, 3–10 min, and 10–30 min. For the time–activity curve, the PET data was reconstructed into 1 min per frame in the first 5 min and then 5 min per frame between 5 and 30 min. […] Radioactivity uptake in the heart was calculated as a standard uptake value ratio (SUVR) between left ventricle and blood. […]

[9] = Ex vivo biodistribution in doxorubicin-treated and control rats after PET; set-up: species or system Wistar rats; conditions: for Ex vivo biodistribution, Blood / Ex vivo biodistribution, Bone / Ex vivo biodistribution, Heart / Ex vivo biodistribution, Kidney / Ex vivo biodistribution, Large Intestine / Ex vivo biodistribution, Liver / Ex vivo biodistribution, Lung / Ex vivo biodistribution, Muscle / Ex vivo biodistribution, Small Intestine / Ex vivo biodistribution, Spleen / Ex vivo biodistribution, Urine: 40 min post-injection
Description: as §2
Wistar rats that had received either doxorubicin treatment (male, 267 ± 19 g, n = 6) or saline (male, 303 ± 9 g, n = 4) via osmotic pumps for 7 days were injected with ^18F-FPBT (2.6 ± 1.5 MBq) via the tail vein on the PET/CT scanner bed. The time of injection coincided with the beginning of PET acquisition in order to obtain dynamic tracer uptake information. PET scans with the chest area in the field of vision were acquired for 30 min, followed by a CT scan, after which the animals were sacrificed and organs harvested, weighed, and gamma-counted as for the biodistribution protocol. The hearts were frozen in liquid nitrogen for gamma counting and oxidative stress biomarker assays. The PET data was reconstructed into three frames: 0–3 min, 3–10 min, and 10–30 min. For the time–activity curve, the PET data was reconstructed into 1 min per frame in the first 5 min and then 5 min per frame between 5 and 30 min. Using VivoQuant software (v3.0, inviCRO, LLC, Boston, USA), regions of interest (ROIs) were drawn in the left ventricle and blood inside the myocardium. Radioactivity uptake in the heart was calculated as a standard uptake value ratio (SUVR) between left ventricle and blood. Data are reported as mean ± SD. Statistical analysis was performed using one-way ANOVA with Tukey’s multiple comparisons test.

[18F]CCCN1c2ccccc2SC1c1ccccc1 (centres unmarked) [^18F-FPBT, 3-(3-[^18F]Fluoropropyl)-2-phenyl-2,3-dihydrobenzo[d]thiazole]
Reactivity to hydroxyl radical [1]: inert | Reactivity to hydrogen peroxide [2]: some reactivity | Reactivity to peroxynitrite [3]: some reactivity | Reactivity to nitric oxide [4]: some reactivity | Reactivity to other biologically relevant ROS [5]: little or no reactivity | Background retention in heart, lungs, spleen and brain [6]: low nonspecific background retention | Time to excretion by renal and hepatobiliary routes [6]: less than 1 h | Blood clearance ([6]; dynamic PET 60 min): fast blood clearance | Route of clearance / excretion, in words ([7]; healthy Wistar rats, iv): excreted by both renal and hepatobiliary routes | Uptake by major organs (brain, heart, lung, spleen), in words ([7]; healthy Wistar rats, iv): rapid uptake | Ex vivo biodistribution, Blood ([7]; iv, 1 min): 0.12 ± 0.05 % ID/g | Ex vivo biodistribution, Bone ([7]; iv, 1 min): 0.14 ± 0.01 % ID/g | Ex vivo biodistribution, Brain ([7]; iv, 1 min): 0.57 ± 0.04 % ID/g | Ex vivo biodistribution, Heart ([7]; iv, 1 min): 1.33 ± 0.15 % ID/g | Ex vivo biodistribution, Kidney ([7]; iv, 1 min): 1.58 ± 0.11 % ID/g | Ex vivo biodistribution, Large Intestine ([7]; iv, 1 min): 0.21 ± 0.03 % ID/g | Ex vivo biodistribution, Liver ([7]; iv, 1 min): 1.52 ± 0.25 % ID/g | Ex vivo biodistribution, Lung ([7]; iv, 1 min): 0.66 ± 0.15 % ID/g | Ex vivo biodistribution, Muscle ([7]; iv, 1 min): 0.08 ± 0.03 % ID/g | Ex vivo biodistribution, Spleen ([7]; iv, 1 min): 0.67 ± 0.09 % ID/g | Ex vivo biodistribution, Urine ([7]; iv, 1 min): 0.02 ± 0.01 % ID/g | Ex vivo biodistribution, Blood ([7]; iv, 5 min): 0.06 ± 0.00 % ID/g | Ex vivo biodistribution, Bone ([7]; iv, 5 min): 0.18 ± 0.18 % ID/g | Ex vivo biodistribution, Brain ([7]; iv, 5 min): 0.33 ± 0.04 % ID/g | Ex vivo biodistribution, Heart ([7]; iv, 5 min): 0.37 ± 0.08 % ID/g | Ex vivo biodistribution, Kidney ([7]; iv, 5 min): 0.60 ± 0.27 % ID/g | Ex vivo biodistribution, Large Intestine ([7]; iv, 5 min): 0.13 ± 0.02 % ID/g | Ex vivo biodistribution, Liver ([7]; iv, 5 min): 1.75 ± 0.19 % ID/g | Ex vivo biodistribution, Lung ([7]; iv, 5 min): 0.34 ± 0.03 % ID/g | Ex vivo biodistribution, Muscle ([7]; iv, 5 min): 0.05 ± 0.03 % ID/g | Ex vivo biodistribution, Small Intestine ([7]; iv, 5 min): 0.53 ± 0.31 % ID/g | Ex vivo biodistribution, Spleen ([7]; iv, 5 min): 0.18 ± 0.01 % ID/g | Ex vivo biodistribution, Urine ([7]; iv, 5 min): 1.22 ± 0.89 % ID/g | Ex vivo biodistribution, Blood ([7]; iv, 30 min): 0.03 ± 0.00 % ID/g | Ex vivo biodistribution, Bone ([7]; iv, 30 min): 0.13 ± 0.02 % ID/g | Ex vivo biodistribution, Brain ([7]; iv, 30 min): 0.06 ± 0.01 % ID/g | Ex vivo biodistribution, Heart ([7]; iv, 30 min): 0.20 ± 0.04 % ID/g | Ex vivo biodistribution, Kidney ([7]; iv, 30 min): 0.17 ± 0.00 % ID/g | Ex vivo biodistribution, Large Intestine ([7]; iv, 30 min): 0.10 ± 0.03 % ID/g | Ex vivo biodistribution, Liver ([7]; iv, 30 min): 0.47 ± 0.13 % ID/g | Ex vivo biodistribution, Lung ([7]; iv, 30 min): 0.18 ± 0.01 % ID/g | Ex vivo biodistribution, Muscle ([7]; iv, 30 min): 0.08 ± 0.02 % ID/g | Ex vivo biodistribution, Small Intestine ([7]; iv, 30 min): 5.01 ± 0.90 % ID/g | Ex vivo biodistribution, Spleen ([7]; iv, 30 min): 0.05 ± 0.01 % ID/g | Ex vivo biodistribution, Urine ([7]; iv, 30 min): 3.79 ± 2.12 % ID/g | Defluorination in vivo (radioactivity accumulation in the bone) ([7]; rats and mice): inert toward defluorination | SUVR LV/blood (heart uptake) of doxorubicin-treated rats compared to vehicle control group [8]: statistically significantly (p < 0.05) higher | SUVR LV/blood (heart uptake) of doxorubicin-treated rats compared to vehicle control group ([8]; listed as 18F-FBPT): significantly higher (P < 0.05) uptake | Post-mortem heart uptake in doxorubicin-treated animals, in words ([9]; 30 min post IV injection): did not show an increased uptake | Ex vivo biodistribution, Blood ([9]; Doxorubicin group, n = 6): 0.08 ± 0.06 % ID/g | Ex vivo biodistribution, Bone ([9]; Doxorubicin group, n = 6): 0.30 ±0.13 % ID/g | Ex vivo biodistribution, Heart ([9]; Doxorubicin group, n = 6): 0.43 ± 0.08 % ID/g | Ex vivo biodistribution, Kidney ([9]; Doxorubicin group, n = 6): 0.41 ± 0.14 % ID/g | Ex vivo biodistribution, Large Intestine ([9]; Doxorubicin group, n = 6): 1.42 ±2.07 % ID/g | Ex vivo biodistribution, Liver ([9]; Doxorubicin group, n = 6): 0.73 ± 0.24 % ID/g | Ex vivo biodistribution, Lung ([9]; Doxorubicin group, n = 6): 0.31 ± 0.12 % ID/g | Ex vivo biodistribution, Muscle ([9]; Doxorubicin group, n = 6): 0.10 ± 0.04 % ID/g | Ex vivo biodistribution, Small Intestine ([9]; Doxorubicin group, n = 6): 2.23 ± 1.43 % ID/g | Ex vivo biodistribution, Spleen ([9]; Doxorubicin group, n = 6): 0.15 ± 0.07 % ID/g | Ex vivo biodistribution, Urine ([9]; Doxorubicin group, n = 6): 12.5 ± 5.33 % ID/g | Ex vivo biodistribution, Blood ([9]; Saline group, n = 4): 0.07 ± 0.02 % ID/g | Ex vivo biodistribution, Bone ([9]; Saline group, n = 4): 0.25 ± 0.22 % ID/g | Ex vivo biodistribution, Heart ([9]; Saline group, n = 4): 0.42 ± 0.17 % ID/g | Ex vivo biodistribution, Kidney ([9]; Saline group, n = 4): 0.42 ± 0.19 % ID/g | Ex vivo biodistribution, Large Intestine ([9]; Saline group, n = 4): 0.38 ± 0.20 % ID/g | Ex vivo biodistribution, Liver ([9]; Saline group, n = 4): 0.65 ± 0.13 % ID/g | Ex vivo biodistribution, Lung ([9]; Saline group, n = 4): 0.29 ± 0.05 % ID/g | Ex vivo biodistribution, Muscle ([9]; Saline group, n = 4): 0.08 ± 0.02 % ID/g | Ex vivo biodistribution, Small Intestine ([9]; Saline group, n = 4): 3.33 ± 3.38 % ID/g | Ex vivo biodistribution, Spleen ([9]; Saline group, n = 4): 0.11 ± 0.02 % ID/g | Ex vivo biodistribution, Urine ([9]; Saline group, n = 4): 5.25 ± 3.05 % ID/g
